In assay [1] the target is T1, Calpain-1 catalytic subunit (Sus scrofa, UniProt P35750).
T1 sequence (P35750 whole entry): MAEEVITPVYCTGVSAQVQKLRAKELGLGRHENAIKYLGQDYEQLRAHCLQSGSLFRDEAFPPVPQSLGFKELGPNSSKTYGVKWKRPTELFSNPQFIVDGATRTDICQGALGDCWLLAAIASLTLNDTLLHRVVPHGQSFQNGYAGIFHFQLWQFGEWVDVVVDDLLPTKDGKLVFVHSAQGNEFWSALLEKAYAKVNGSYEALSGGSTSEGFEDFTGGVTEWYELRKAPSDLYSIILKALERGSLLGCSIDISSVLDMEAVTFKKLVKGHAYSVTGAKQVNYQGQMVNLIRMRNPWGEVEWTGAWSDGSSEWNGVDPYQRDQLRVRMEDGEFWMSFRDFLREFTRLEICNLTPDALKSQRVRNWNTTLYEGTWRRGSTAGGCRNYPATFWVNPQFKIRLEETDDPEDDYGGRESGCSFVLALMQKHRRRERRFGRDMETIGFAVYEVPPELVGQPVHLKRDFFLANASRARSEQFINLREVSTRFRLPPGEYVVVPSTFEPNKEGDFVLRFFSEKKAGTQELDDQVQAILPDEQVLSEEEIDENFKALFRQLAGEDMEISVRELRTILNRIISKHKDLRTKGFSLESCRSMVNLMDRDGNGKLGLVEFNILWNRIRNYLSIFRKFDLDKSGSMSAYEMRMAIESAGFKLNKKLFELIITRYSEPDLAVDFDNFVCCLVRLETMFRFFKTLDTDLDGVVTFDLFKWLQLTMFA
Briefly: Inhibition of mu calpain in porcine erythrocyte.

The target in a further assay is Cathepsin B (Homo sapiens, UniProt P07858). Briefly: Inhibition of cathepsin B from human brain.
Assay [2] in a line: Selectivity for porcine mu calpain over human cathepsin B.
For a further assay, the species on record is Sus scrofa. Briefly: Inhibition of mu calpain in porcine erythrocyte at 100 uM.

Broadly, the Ki is the dissociation constant of the complex between target and ligand, obtained from inhibition or displacement. A low value points to tighter binding. In assay [1], `CN(CCOCc1ccccc1)C(=O)N[C@H](C=O)Cc1ccccc1` gave a Ki of 6690 nM.
Compound `CC(C)N(Cc1ccccc1)C(=O)N[C@H](C=O)Cc1ccccc1` came in with a Ki in assay [1] of 6820 nM.
As for `CC(C)C(C(=O)N[C@H](C=O)Cc1ccccc1)C(=O)OCc1ccccc1` (some centres not stated), the figures for the Ki (on Cathepsin B; in assay [1]) were 20 nM and 10 nM, respectively. For the same compound, the Ratio Ki in assay [2] came out at 2.
The like results for `CC(C)N(CCOCc1ccccc1)C(=O)N[C@H](C=O)Cc1ccccc1` were, in that order, 22100 nM, 230 nM and 96.1.
A word on the inhibition: it is the relative decrease from the control value, in per cent. A low value points to a weak effect. On to `CC(C)NC(=O)N[C@H](C=O)Cc1ccccc1`, for which the inhibition in the assay filed under Sus scrofa stood at 13%.
As to `CC(C)N(CCCCc1ccccc1)C(=O)N[C@H](C=O)Cc1ccccc1`, the Ki in assay [1] was found to be 400 nM.
Regarding `CC(C)CC(C(=O)N[C@H](C=O)Cc1ccccc1)C(=O)OCc1ccccc1` (some centres not stated), the Ki on Cathepsin B is 120 nM; in assay [1] it was 15 nM. Further, the Ratio Ki in assay [2] turned out to be 8.
Take `CCN(CCOCc1ccccc1)C(=O)N[C@H](C=O)Cc1ccccc1`: the Ki in assay [1] worked out at 1150 nM.
Still for that read-out and setting: to `CC(C)N(CCc1ccccc1)C(=O)N[C@H](C=O)Cc1ccccc1` belongs 2350 nM.
As to `CC(C)CN(CCOCc1ccccc1)C(=O)N[C@H](C=O)Cc1ccccc1`, the inhibition constant (Ki) at Cathepsin B stood at 33300 nM; in assay [1], 150 nM. In addition, the Ratio Ki in assay [2] amounted to 222.
`CC(C)N(CCCc1ccccc1)C(=O)N[C@H](C=O)Cc1ccccc1` came in with a Ki in assay [1] of 1160 nM.
The same measure, in the same setting: to `CC(C)CN(CCOCc1ccccc1)C(=O)N[C@H](C=O)C(C)C` belongs 9270 nM; to `O=C[C@H](Cc1ccccc1)NC(=O)N(CCOCc1ccccc1)Cc1ccccc1`, 6650 nM; to `CC(C)CN(CCOCc1ccccc1)C(=O)NCC=O`, 88700 nM.

(Values after ChEMBL document CHEMBL1146935, “A novel series of urea-based peptidomimetic calpain inhibitors” (Bioorg Med Chem Lett, 2006).)
